# Assay results published in ChEMBL document CHEMBL2074255, “Human intestinal H+/peptide cotransporter. Cloning, functional expression, and chromosomal localization” (J Biol Chem, 1995).
# Residues, ends and D or L forms follow the SMILES beside them.
# T1: Solute carrier family 15 member 1 (Homo sapiens) (UniProt P46059)
# T1 sequence (whole entry): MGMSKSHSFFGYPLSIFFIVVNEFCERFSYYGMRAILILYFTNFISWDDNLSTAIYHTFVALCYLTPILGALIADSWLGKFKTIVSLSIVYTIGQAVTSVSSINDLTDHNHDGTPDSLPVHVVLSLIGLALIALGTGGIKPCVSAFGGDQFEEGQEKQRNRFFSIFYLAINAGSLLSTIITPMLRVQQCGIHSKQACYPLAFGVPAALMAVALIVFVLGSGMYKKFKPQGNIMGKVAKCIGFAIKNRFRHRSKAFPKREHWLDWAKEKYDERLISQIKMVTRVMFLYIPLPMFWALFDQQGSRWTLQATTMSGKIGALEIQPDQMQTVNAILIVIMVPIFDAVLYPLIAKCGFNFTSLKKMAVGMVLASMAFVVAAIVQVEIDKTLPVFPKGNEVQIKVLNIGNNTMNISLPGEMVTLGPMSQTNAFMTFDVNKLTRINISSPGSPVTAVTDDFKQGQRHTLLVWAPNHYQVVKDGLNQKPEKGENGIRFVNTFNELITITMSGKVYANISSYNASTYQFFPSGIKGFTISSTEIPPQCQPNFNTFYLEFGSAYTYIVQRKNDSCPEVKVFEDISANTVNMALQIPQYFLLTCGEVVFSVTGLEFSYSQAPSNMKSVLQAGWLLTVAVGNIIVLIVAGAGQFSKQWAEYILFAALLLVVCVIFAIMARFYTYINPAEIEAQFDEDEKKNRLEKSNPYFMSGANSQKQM
# B1: Solute carrier family 15 member 1 (Homo sapiens), P46059 (protein)
# chain: T1 sequence (whole entry)
# Legend:
# Assay type in all cases: functional, cell-based
# [1] = molecular target: T1, Solute carrier family 15 member 1 (Homo sapiens); assay: TP_TRANSPORTER: inhibition of Gly-Sar uptake (Gly-Sar: 20 uM, Leu-Pro: 10000 uM) in PEPT1-expressing HeLa cells; set-up: scale not given: the % may be the effect or the level left
# [2] = molecular target: T1, Solute carrier family 15 member 1 (Homo sapiens); assay: TP_TRANSPORTER: inhibition of Gly-Sar uptake (Gly-Sar: 20 uM, Gly-Pro: 10000 uM) in PEPT1-expressing HeLa cells; set-up: scale not given: the % may be the effect or the level left
# [3] = molecular target: T1, Solute carrier family 15 member 1 (Homo sapiens); assay: TP_TRANSPORTER: inhibition of Gly-Sar uptake (Gly-Sar: 20 uM, Gly-Gly-Ile: 10000 uM) in PEPT1-expressing HeLa cells; set-up: scale not given: the % may be the effect or the level left
# [4] = molecular target: T1, Solute carrier family 15 member 1 (Homo sapiens); assay: TP_TRANSPORTER: inhibition of Gly-Sar uptake (Gly-Sar: 20 uM, Gly-Gly-Pro: 10000 uM) in PEPT1-expressing HeLa cells; set-up: scale not given: the % may be the effect or the level left
# [5] = molecular target: T1, Solute carrier family 15 member 1 (Homo sapiens); assay: TP_TRANSPORTER: inhibition of Gly-Sar uptake (Gly-Sar: 20 uM, Ala-Pro: 10000 uM) in PEPT1-expressing HeLa cells; set-up: scale not given: the % may be the effect or the level left
# [6] = substrate: CN(CC(=O)O)C(=O)CN; assay: TP_TRANSPORTER: uptake in PEPT1-expressing HeLa cells
molecule,measurement,setting,value
CC(C)C[C@H](N)C(=O)N1CCC[C@H]1C(=O)O (H-Leu-Pro-OH),Activity,[1],8%
NCC(=O)N1CCC[C@H]1C(=O)O (H-Gly-Pro-OH),Activity,[2],7%
CC[C@H](C)[C@H](NC(=O)CNC(=O)CN)C(=O)O (H-Gly-Gly-Ile-OH),Activity,[3],10%
NCC(=O)NCC(=O)N1CCC[C@H]1C(=O)O (H-Gly-Gly-Pro-OH),Activity,[4],13%
C[C@H](N)C(=O)N1CCC[C@H]1C(=O)O (H-Ala-Pro-OH),Activity,[5],8%
B1,Km,[6],290 µM
